{"source": "patent US20060069132A1", "about": "“Azolecarboxamide herbicides” (priority 2004, published 2006)", "key": {"[1]": {"test_system": "pigweed", "test": "Test B pre-/postemergence herbicide test", "format": "in vivo, Amaranthus retroflexus", "method_in_brief": "(§1)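 Greenhouse pot assay with simultaneous preemergence (treated seed) and postemergence (2–18 cm seedlings) applications of surfactant-containing, non-phytotoxic solvent formulations. Response scored visually 13–15 days later on a 0–100 scale, 100 meaning complete control.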"}, "[2]": {"test_system": "small flower umbrella sedge", "test": "Test B flooded paddy test", "format": "in vivo, Cyperus difformis", "conditions": "1000 g ai/ha, visual rating, scale 0 to 100 (0 no effect, 100 complete control), 13 to 15 days", "method_in_brief": "(§2)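 Greenhouse test; postemergence application to plants at 1–4 leaves (2–18 cm); paddy species at 2 leaves; evaluated visually vs controls at 13–15 days; scale 0–100 (100 = complete control).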"}, "[3]": {"test_system": "rice", "test": "Test C flooded paddy test", "format": "in vivo, Oryza sativa", "method_in_brief": "(§3)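 Postemergence sprays applied to plants 2 to 18 cm tall (1- to 4-leaf stage); paddy species grown to 2-leaf stage under flooding. After 12 to 14 days in greenhouse, visual rating versus untreated controls on 0–100 scale (0 no effect, 100 complete control).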"}, "[4]": {"test_system": "blackgrass", "test": "Test B postemergence herbicide test", "format": "in vivo, Alopecurus myosuroides", "conditions": "scale 0 (no effect) to 100 (complete control)", "method_in_brief": "as §2"}, "[5]": {"test_system": "ducksalad", "test": "Test B flooded paddy test", "format": "in vivo, Heteranthera limosa", "conditions": "1000 g ai/ha, visual rating, scale 0 to 100 (0 no effect, 100 complete control), 13 to 15 days", "method_in_brief": "as §2"}, "[6]": {"test_system": "morningglory", "test": "Test B pre-/postemergence herbicide test", "format": "in vivo, Ipomoea coccinea", "method_in_brief": "as §1"}, "[7]": {"test_system": "cocklebur", "test": "Test B pre-/postemergence herbicide test", "format": "in vivo, Xanthium strumarium", "method_in_brief": "as §1"}, "[8]": {"test_system": "large crabgrass", "test": "Test B pre-/postemergence herbicide test", "format": "in vivo, Digitaria sanguinalis", "method_in_brief": "as §1"}, "[9]": {"test_system": "lambsquarters", "test": "Test B pre-/postemergence herbicide test", "format": "in vivo, Chenopodium album", "method_in_brief": "as §1"}, "[10]": {"test_system": "wheat", "test": "Test B postemergence herbicide test", "format": "in vivo, Triticum aestivum", "set-up": "key to Wheat plant response rating: 0 = no effect, 100 = complete control", "conditions": "scale 0 (no effect) to 100 (complete control)", "method_in_brief": "(§4)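 Postemergence plants were sprayed with formulated test chemicals at 2 to 18 cm height (1- to 4-leaf stage); paddy species were grown to the 2-leaf stage. After 13 to 15 days in a greenhouse, injury was rated visually against untreated controls on a 0–100 scale (0 = no effect, 100 = complete control).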"}, "[11]": {"test_system": "Surinam grass", "test": "Test B pre-/postemergence herbicide test", "format": "in vivo, Urochloa decumbens", "method_in_brief": "as §1"}, "[12]": {"test_system": "velvetleaf", "test": "Test B pre-/postemergence herbicide test", "format": "in vivo, Abutilon theophrasti", "method_in_brief": "as §1"}, "[13]": {"test_system": "giant foxtail", "test": "Test B pre-/postemergence herbicide test", "format": "in vivo, Setaria faberi", "method_in_brief": "as §1"}, "[14]": {"test_system": "wild oat", "test": "Test B postemergence herbicide test", "format": "in vivo, Avena fatua", "conditions": "scale 0 (no effect) to 100 (complete control)", "method_in_brief": "as §4"}, "[15]": {"test_system": "barnyardgrass", "test": "Test B flooded paddy test", "format": "in vivo, Echinochloa crus-galli", "conditions": "1000 g ai/ha, visual rating, scale 0 to 100 (0 no effect, 100 complete control), 13 to 15 days", "method_in_brief": "as §2"}, "[16]": {"test_system": "barnyardgrass", "test": "Test C flooded paddy test", "format": "in vivo, Echinochloa crus-galli", "method_in_brief": "as §3"}, "[17]": {"test_system": "rice", "test": "Test B pre-/postemergence herbicide test", "format": "in vivo, Oryza sativa", "conditions": "preemergence", "method_in_brief": "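Species tested were Echinochloa crus-galli, Ipomoea coccinea, Xanthium strumarium and Oryza sativa, treated both before emergence and at the 1- to 4-leaf stage; rice and barnyardgrass were also tested under flooding at 2 leaves. Greenhouse incubation lasted 13–15 days before visual 0–100 scoring.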"}, "[18]": {"test_system": "corn", "test": "Test B pre-/postemergence herbicide test", "format": "in vivo, Zea mays", "method_in_brief": "as §1"}, "[19]": {"test_system": "smallflower umbrella sedge", "test": "Test C flooded paddy test", "format": "in vivo, Cyperus difformis"}, "[20]": {"test_system": "ducksalad", "test": "Test C flooded paddy test", "format": "in vivo, Heteranthera limosa"}, "[21]": {"test_system": "barnyardgrass", "test": "Test B pre-/postemergence herbicide test", "format": "in vivo, Echinochloa crus-galli", "method_in_brief": "as §1"}, "[22]": {"test_system": "rice", "test": "Test B flooded paddy test", "format": "in vivo, Oryza sativa", "conditions": "1000 g ai/ha, visual rating, scale 0 to 100 (0 no effect, 100 complete control), 13 to 15 days", "method_in_brief": "as §2"}, "[23]": {"conditions": "500 g ai/ha, visual rating 0-100, 0 no effect, 100 complete control, preemergence"}, "[24]": {"conditions": "Postemergence, 500 g ai/ha, visual rating after 13 to 15 days, scale 0 (no effect) to 100 (complete control)"}, "[25]": {"conditions": "postemergence, 125 g ai/ha, visual rating, scale 0 (no effect) to 100 (complete control)"}, "[26]": {"conditions": "preemergence, 125 g ai/ha, 0 to 100 scale, 0 is no effect, 100 is complete control"}, "[27]": {"conditions": "62 g ai/ha, scale 0 to 100 (0 no effect, 100 complete control)"}, "[28]": {"conditions": "125 g ai/ha, scale of 0 to 100, 0 is no effect, 100 is complete control"}, "[29]": {"conditions": "250 g ai/ha, scale of 0 to 100, 0 is no effect, 100 is complete control"}, "[30]": {"conditions": "500 g ai/ha, visual rating after 12 to 14 days, scale 0 to 100 (0 no effect, 100 complete control)"}, "[31]": {"conditions": "Postemergence, 500 g ai/ha, visual rating after 13 to 15 days"}, "[32]": {"conditions": "postemergence, 125 g ai/ha, visual rating"}}, "data": [{"smiles": "CCn1nc(C(C)(C)C)cc1C(=O)Nc1ccc(OC)c(C(=O)OC(C)C)c1", "note": "[Compound 101]", "values": [{"measurement": "Plant response rating, Pigweed", "setting": "[1]; [23]", "value": 100}, {"measurement": "Plant response rating, Pigweed", "setting": "[1]; [24]", "value": 90}, {"measurement": "Pigweed plant response rating", "setting": "[1]; [25]", "value": 80}, {"measurement": "Plant response rating, Pigweed", "setting": "[1]; [26]", "value": 100}, {"measurement": "Sedge, Umbrella plant response rating", "setting": "[2]", "value": 80}, {"measurement": "Rice plant response rating", "setting": "[3]; [27]", "value": 0}, {"measurement": "Rice plant response rating", "setting": "[3]; [28]", "value": 0}, {"measurement": "Rice plant response rating", "setting": "[3]; [29]", "value": 0}, {"measurement": "Plant response rating, Rice", "setting": "[3]; [30]", "value": 25}, {"measurement": "Plant response rating, Blackgrass", "setting": "[4]; [31]", "value": 40}, {"measurement": "Blackgrass plant response rating", "setting": "[4]; [32]", "value": 20}, {"measurement": "Ducksalad plant response rating", "setting": "[5]", "value": 90}, {"measurement": "Plant response rating, Morningglory", "setting": "[6]; [23]", "value": 10}, {"measurement": "Plant response rating, Morningglory", "setting": "[6]; [24]", "value": 10}, {"measurement": "Morningglory plant response rating", "setting": "[6]; [25]", "value": 10}, {"measurement": "Plant response rating, Morningglory", "setting": "[6]; [26]", "value": 10}, {"measurement": "Plant response rating, Cocklebur", "setting": "[7]; [23]", "value": 90}, {"measurement": "Plant response rating, Cocklebur", "setting": "[7]; [24]", "value": 80}, {"measurement": "Cocklebur plant response rating", "setting": "[7]; [25]", "value": 20}, {"measurement": "Plant response rating, Cocklebur", "setting": "[7]; [26]", "value": 0}, {"measurement": "Plant response rating, Crabgrass, Large", "setting": "[8]; [23]", "value": 90}, {"measurement": "Plant response rating, Crabgrass, Large", "setting": "[8]; [24]", "value": 20}, {"measurement": "Crabgrass, Large plant response rating", "setting": "[8]; [25]", "value": 10}, {"measurement": "Plant response rating, Crabgrass, Large", "setting": "[8]; [26]", "value": 50}, {"measurement": "Plant response rating, Lambsquarters", "setting": "[9]; [23]", "value": 100}, {"measurement": "Plant response rating, Lambsquarters", "setting": "[9]; [24]", "value": 90}, {"measurement": "Lambsquarters plant response rating", "setting": "[9]; [25]", "value": 80}, {"measurement": "Plant response rating, Lambsquarters", "setting": "[9]; [26]", "value": 100}, {"measurement": "Plant response rating, Wheat", "setting": "[10]; [31]", "value": 20}, {"measurement": "Wheat plant response rating", "setting": "[10]; [32]", "value": 10}, {"measurement": "Plant response rating, Surinam Grass", "setting": "[11]; [23]", "value": 30}, {"measurement": "Plant response rating, Surinam Grass", "setting": "[11]; [24]", "value": 20}, {"measurement": "Surinam Grass plant response rating", "setting": "[11]; [25]", "value": 10}, {"measurement": "Plant response rating, Surinam Grass", "setting": "[11]; [26]", "value": 10}, {"measurement": "Plant response rating, Velvetleaf", "setting": "[12]; [23]", "value": 50}, {"measurement": "Plant response rating, Velvetleaf", "setting": "[12]; [24]", "value": 30}, {"measurement": "Velvetleaf plant response rating", "setting": "[12]; [25]", "value": 20}, {"measurement": "Plant response rating, Velvetleaf", "setting": "[12]; [26]", "value": 20}, {"measurement": "Plant response rating, Foxtail, Giant", "setting": "[13]; [23]", "value": 60}, {"measurement": "Plant response rating, Foxtail, Giant", "setting": "[13]; [24]", "value": 30}, {"measurement": "Foxtail, Giant plant response rating", "setting": "[13]; [25]", "value": 20}, {"measurement": "Plant response rating, Foxtail, Giant", "setting": "[13]; [26]", "value": 20}, {"measurement": "Plant response rating, Oat, Wild", "setting": "[14]; [31]", "value": 50}, {"measurement": "Oat, Wild plant response rating", "setting": "[14]; [32]", "value": 30}, {"measurement": "Barnyardgrass plant response rating", "setting": "[15]", "value": 70}, {"measurement": "Barnyardgrass plant response rating", "setting": "[16]; [27]", "value": 0}, {"measurement": "Barnyardgrass plant response rating", "setting": "[16]; [28]", "value": 20}, {"measurement": "Barnyardgrass plant response rating", "setting": "[16]; [29]", "value": 30}, {"measurement": "Plant response rating, Barnyardgrass", "setting": "[16]; [30]", "value": 50}, {"measurement": "Plant response rating, Rice", "setting": "[17]; 500 g ai/ha, visual rating 0-100, 0 no effect, 100 complete control", "value": 40}, {"measurement": "Plant response rating, Rice", "setting": "[17]; 125 g ai/ha, 0 to 100 scale, 0 is no effect, 100 is complete control", "value": 30}, {"measurement": "Plant response rating, Corn", "setting": "[18]; [23]", "value": 40}, {"measurement": "Plant response rating, Corn", "setting": "[18]; [24]", "value": 40}, {"measurement": "Corn plant response rating", "setting": "[18]; [25]", "value": 10}, {"measurement": "Plant response rating, Corn", "setting": "[18]; [26]", "value": 20}, {"measurement": "Sedge, Umbrella plant response rating", "setting": "[19]; [27]", "value": 20}, {"measurement": "Sedge, Umbrella plant response rating", "setting": "[19]; [28]", "value": 75}, {"measurement": "Sedge, Umbrella plant response rating", "setting": "[19]; [29]", "value": 80}, {"measurement": "Plant response rating, Sedge, Umbrella", "setting": "[19]; [30]", "value": 90}, {"measurement": "Ducksalad plant response rating", "setting": "[20]; [27]", "value": 0}, {"measurement": "Ducksalad plant response rating", "setting": "[20]; [28]", "value": 0}, {"measurement": "Ducksalad plant response rating", "setting": "[20]; [29]", "value": 40}, {"measurement": "Plant response rating, Ducksalad", "setting": "[20]; [30]", "value": 75}, {"measurement": "Plant response rating, Barnyardgrass", "setting": "[21]; [23]", "value": 70}, {"measurement": "Plant response rating, Barnyardgrass", "setting": "[21]; [24]", "value": 20}, {"measurement": "Barnyardgrass plant response rating", "setting": "[21]; [25]", "value": 10}, {"measurement": "Plant response rating, Barnyardgrass", "setting": "[21]; [26]", "value": 40}, {"measurement": "Rice plant response rating", "setting": "[22]", "value": 80}]}]}
